Measured values published in patent US5759787A, “Kinase assay” (Tularik Inc., priority 1996, dated 1998).
Where no end group is shown, it is not given here.

Tested on: PKA
Assay: Radioactive PKA kinase reaction with phosphocellulose or streptavidin capture
Assay type: biochemical
Conditions: substrate peptide
Procedure: The peptide substrates were added in 90 μl assay buffer containing 20 mM Tris-HCl pH 7.5, 2.5 mM MgCl2, and 100 μM ATP for non-radioactive detection, or 10 μM cold ATP supplemented with 0.5 μCi/well [γ-^32 P]ATP for radioactive detection, unless indicated otherwise. Freshly reconstituted PKA (1.25 ng/well in 10 μl, unless indicated otherwise) was added last and the samples were incubated for 30 minutes at room temperature. Depending on the detection method the samples were further processed as described below.
After performing a PKA kinase reaction for 30 minutes, the samples were divided into two. 50 μl were transferred into wells of streptavidin coated microtiter plates, to allow the capture of the biotinylated peptides for additional 50 minutes. The wells were washed five times with water, dried, broken into scintillation vials and counted. The other half of the reaction mixture was further incubated in the original plate for 50 minutes, then TCA was added to the reaction mixture (10% final concentration) and 30 μl was spotted onto P81 paper (1×1 inch squares). After 20 minutes the squares were washed three times with water, dried, placed into scintillation vials and counted. A microtiter plate version of the phosphocellulose capture method was also used with similar results. For src only the phosphocellulose capture method was used.

Km: > 20 µM
Substance: bio-RRRVTSAARRS (not fully specified (N-terminus); printed as bio-RRRVTSAARRS) [peptide 2]
